Consider 2 molecules from patent US20060270742A1, “Compositions and methods for the treatment of neurodegenerative diseases” (priority 2005, published 2006).

Molecules are shown by their SMILES.

Experiment [1] deals with SMN protein. Kind of experiment: SMN cytoblot assay in SMA patient fibroblasts. Particulars: for SMN protein levels: SMA patient fibroblasts, cytoblot; for SMN per viable cell (normalized hit): SMN cytoblot relative to cell number estimated by Alamar blue. In kind it is cell-based, human. Here is the method:
One method for monitoring SMN protein levels in cells is through use of a cytoblot assay, in which cells are fixed and probed with an antibody against a target protein of interest.
Using the cytoblot assay, we can clearly distinguish SMN protein levels in patient (GM03813) versus carrier fibroblast cells (GM03814).
The SMN cytoblot protocol is described below.
• 1. Plate 50 μl per well of 300,000 cells/ml (15,000 cells per well) into Nunc white 384-well opaque-bottomed plates. • 2. Incubate plates at 37° C., 5% CO2 overnight. Day 2 • 1. Aspirate media from wells using Tecan plate washer. • 2. Fix cells by adding 20 μl/well of cold methanol (kept in −20° C. freezer). • 3. Incubate plates in 4° C. refrigerator for 10 minutes. • 4. Aspirate methanol using Tecan plate washer. • 5. Add 50 μl/well of primary Ab solution, (BD anti-SMN Ab diluted to 125 ng/ml in 10% fetal goat serum PBST), using multi-drop. • 6. Seal plates and incubate overnight at room temperature. Day 3 • 1. After 16-20 hrs incubation, wash plates with PBST 2× using Tecan plate washer. • 2. Add 50 μl of secondary Ab solution, (Santa Cruz goat anti-Mouse-HRP diluted to 67 ng/ml in 10% fetal goat serum PBST). • 3. Seal plates and incubate 2 hrs at room temperature. • 4. Wash plates with PBST 2× using Tecan plate washer. • 5. Add 50 μl/well 10% fetal goat serum PBST. • 6. Incubate in 4° C. refrigerator for 10 minutes. • 7. Aspirate plates using plate washer and add ECL luminescence solution, 20 μl/well. • 8. Measure luminescence on plate reader. Automated Scoring
We scored each compound based on the maximum signal-to-noise ratio (SNR) found among its dose curves. These scores are based on edge-corrected SMN data, using only plates that passed quality control. The untreated level on each plate was found by taking the median of the untreated wells, and for each treated well we calculated a log(T/U) ratio. Each curve was generated in triplicate on each plate, so each point on a compound's dose curve was obtained by determining the median for the replicate points. Each ratio thus has an error estimate from the scatter between the triplicate data points (1.5 times the median absolute deviation from the median). For each dose curve, we calculated the SNR for each data point log(T/U)/error, and chose the maximum point as our indicator of SMN induction activity. Since this is a signal-to-noise score, scores much greater than one indicate significant activity, assuming normal statistics. We decided to use a cutoff signal-to-noise ratio of 6. This selection represents a considerable enrichment towards visually-selected compounds. We identified 100 out of 2000 compounds producing scores>6. This included 13 of the 28 visual selections.
• 1. […] Type 3 reversal of curve hits […]

For experiment [2], the system named is SMN protein. Kind of experiment: Western blot of SMN protein in treated cells. In kind it is cell-based, human. The following applies: 72 hours treatment, densitometry, fold change relative to vehicle (DMSO). Here is the method: Effects on SMN protein levels were also confirmed by western blots. Cells were treated with compound or vehicle for 72 hours. Cell lysates were prepared and analyzed by western blot. SMN protein levels were quantified by densitometry and normalized to an internal control protein (GAPdH or EIF4e) (FIGS. 4-6). The SMN/control ratios shown in FIGS. 4-6 depict the fold change relative to vehicle (DMSO) control.
A general note: In western blotting, separated proteins are transferred to a membrane and probed.

On to `NC12CC3CC(CC(C3)C1)C2` [amantadine], for which, in the experiment with SMN protein [1], the SMN protein levels result is recorded as “increase SMN protein levels” and the “SMN per viable cell (normalized hit)” value is “normalized hits”.
In the case of `CC12CC3CC(C)(C1)CC(N)(C3)C2` [memantine, 1-amino-3,5-dimethyl adamantane], in the experiment with SMN protein [1], the SMN protein levels entry is recorded as “increase SMN protein levels” and the “SMN per viable cell (normalized hit)” value is recorded as “normalized hits”. Besides, in the experiment with SMN protein [2], the “SMN protein relative to control proteins GAPdH and eIF4E” value is “increases in SMN protein”.
